Test results published in patent US20250319095A1, “USE OF BENZO[…] INCREASE SENSITIVITY TO […] A CHRONIC SSRI REGIMEN” (Compass Pathfinder Limited, priority 2020, published 2025).
Where “and” joins values, the source holds several entries; their conditions need not be identical. Equal entries are not always repeated.

Assays:
[1] = oral dose equivalence; cited from earlier work
5HT2A = target: T1, 5HT2A (Mus musculus, UniProt P35363); assay: [3H]MDL100907 binding in frontal cortical membranes (5HT2A Kd and Bmax)
T1 construct: homogenates were prepared from frontal cortices sampled from groups E and F; from tissue; host or cells: mouse frontal cortex membranes (homogenate)
T1 sequence (P35363 whole entry): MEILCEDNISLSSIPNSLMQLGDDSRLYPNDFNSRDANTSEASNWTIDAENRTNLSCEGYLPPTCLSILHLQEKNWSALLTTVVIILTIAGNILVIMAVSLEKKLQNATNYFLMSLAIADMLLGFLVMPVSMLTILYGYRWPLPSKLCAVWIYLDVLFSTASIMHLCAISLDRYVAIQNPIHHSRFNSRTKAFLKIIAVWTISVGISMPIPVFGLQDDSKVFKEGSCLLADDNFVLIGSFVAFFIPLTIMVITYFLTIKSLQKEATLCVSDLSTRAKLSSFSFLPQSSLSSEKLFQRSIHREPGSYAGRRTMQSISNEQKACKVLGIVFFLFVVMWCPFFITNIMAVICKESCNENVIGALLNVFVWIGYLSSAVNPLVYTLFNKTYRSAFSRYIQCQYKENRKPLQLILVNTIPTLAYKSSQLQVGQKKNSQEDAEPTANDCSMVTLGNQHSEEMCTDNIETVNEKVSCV
Method: To prepare the homogenate, frontal cortices from each animal were homogenized individually in 40 volumes (w/v) of ice cold assay buffer using a tight-fitting glass/Teflon homogenizer and centrifuged at 39,500×g for 10 min. The supernatant was discarded, and the pellet re-suspended in 40 volumes (w/v) of assay buffer and the tissue washed by centrifugation two more times. The final pellet was re-suspended in ice-cold assay buffer to 6.25 mg weight wet of tissue/ml and used immediately in the binding assay. Aliquots of final membrane preparations were also stored at −80 C until required for protein determination. All centrifugations will be carried out at 4° C.
To examine binding, the frontal cortical membranes (400 μl; equivalent to 2.5 mg wet weight of tissue/tube) were incubated with 50 μl of [3H] MDL 100907 (8 concentrations: 0.025, 0.05, 0.1, 0.2, 0.4, 0.8, 1.6, 3.2 nM) and either 50 μl of buffer (total binding) or 50 μl of 10 μM ketanserin (to define nonspecific binding) for 60 min at 25 C. […]
Membrane bound radioactivity was recovered by filtration under vacuum through Skatron 11731 filters, presoaked in 0.5% polyethylenimine (PEI) using a Skatron cell harvester. Filters were rapidly washed with ice cold wash buffer (wash setting 9,9,0) and radioactivity determined by liquid scintillation counting (1 ml Packard MV Gold scintillator). […]

male C57BL/6J mice = assay: Psilocybin head twitch response with chronic diazepam pre-treatment; assay type: in vivo
Method: Sixty-two (60 plus 2 spares;) male C57BL/6J mice (20-25 g upon arrival) were purchased from Charles River UK. Animals were group housed (in 3 s and a pair) in polypropylene cages. Mice were maintained on a normal phase 12 h light-dark cycle (lights on: 07:00-19:00 h) with free access to standard rodent maintenance diet (standard pelleted diet Envigo 2018) and filtered tap water. The holding room was maintained at a temperature of 21±4° C. and relative humidity was 55±15% with prolonged periods below 40% RH or above 70% RH avoided as detailed in the UK Code of Practice. As a refinement, each cage contained sawdust, sizzle nest, a red house, Perspex tunnel, plastic chew stick and a nestlet so that the mice can make nests and facilitate warmth. Mice were weighed upon arrival and provided with wet mash overnight. The following morning, mice were weighed, and the mash removed.
Mice were weighed and allocated into 6 treatment groups by a statistician (as per Table 20 below). […] For groups A-D animals were placed individually in clean cages with a light dusting of sawdust immediately following psilocybin administration (0.3 mg/kg, s.c) for head twitch response assessment. Head twitches were counted by a trained observer over a 30 minute period.
Statistical significance was tested using two-way analysis of variance with treatment and observer as cofactors (Table 21 below).

O=C1CN=C(c2ccccc2Cl)c2cc([N+](=O)[O-])ccc2N1 [Clonazepam, clonazepam]
Relative Potency [1]: 0.25 to 0.5 mg

O=C(O)C1N=C(c2ccccc2)c2cc(Cl)ccc2NC1=O (stereo not drawn) [Clorazepate, clorazepate]
Relative Potency [1]: 7 mg

Cc1ncc2n1-c1ccc(Cl)cc1C(c1ccccc1F)=NC2 [Midazolam, midazolam]
Relative Potency [1]: 3.3 mg

CN1C(=O)CN=C(c2ccccc2)c2cc(Cl)ccc21 [Diazepam, diazepam]
Bmax (fmoles/mg protein) (5HT2A): 271 fmoles/mg protein and 339 fmoles/mg protein and 334 fmoles/mg protein and 360 fmoles/mg protein and 314 fmoles/mg protein and 376 fmoles/mg protein
Bmax (pM) (5HT2A): 74.0 pM and 78.3 pM and 77.8 pM and 93.6 pM and 87.2 pM and 87.6 pM
psilocybin HTR, change with diazepam pretreatment (male C57BL/6J mice; 2 h post diazepam pretreatment): trend increase
HTR, change with diazepam pretreatment (male C57BL/6J mice; HTR at 10-15 and 20-25 minutes analyzed separately): significant increase
HTR, change with diazepam pretreatment (male C57BL/6J mice; over 30 minutes): trend increase

Cc1nnc2n1-c1ccc(Cl)cc1C(c1ccccc1)=NC2 [Alprazolam, alprazolam]
Relative Potency [1]: 0.5 mg

Fc1ccccc1C1=NCC(=S)N(CC(F)(F)F)c2ccc(Cl)cc21 [Quazepam, quazepam]
Relative Potency [1]: 13 mg

CCN(CC)CCN1C(=O)CN=C(c2ccccc2F)c2cc(Cl)ccc21 [Flurazepam, flurazepam]
Relative Potency [1]: 10 mg

Clc1ccc2c(c1)C(c1ccccc1)=NCc1nncn1-2 [Estazolam, estazolam]
Relative Potency [1]: 0.5 to 1 mg

CN1C(=O)C(O)N=C(c2ccccc2)c2cc(Cl)ccc21 (stereo not drawn) [Temazepam, temazepam]
Relative Potency [1]: 10 mg

O=C1Nc2ccc(Cl)cc2C(c2ccccc2Cl)=NC1O (stereo not drawn) [Lorazepam, lorazepam]
Relative Potency [1]: 1 mg

Cc1nnc2n1-c1ccc(Cl)cc1C(c1ccccc1Cl)=NC2 [Triazolam, triazolam]
Relative Potency [1]: 0.25 mg
